The compounds below were run against PDE4 (Homo sapiens, UniProt Q07343) (assay: PDE4 Assay Procedure ([3H]-cAMP SPA)). Settings: read-out: HPDE4B or IC50 PDE4.
Type: biochemical
Protocol: Compounds to be tested were resuspended in DMSO at a stock concentration of 1 mM. The compounds were tested at different concentrations varying from 10 pM to 10 μM to calculate an IC50. These dilutions were done in 96-well plates. In some cases, plates containing diluted compounds were frozen before being assayed. In these cases, the plates were thawed at room temperature and stirred for 15 minutes.
Ten microliters of the diluted compounds were poured into a “low binding” assay plate. Eighty microliters of reaction mixture containing 50 mM Tris pH 7.5, 8.3 mM MgCl2, 1.7 mM EGTA, and 15 nM [3H]-cAMP were added to each well. The reaction was initiated by adding ten microliters of a solution containing PDE4. The plate was then incubated under stirring for 1 hour at room temperature. After incubation the reaction was stopped with 50 microlitres of SPA beads, and the reaction was allowed to incubate for another 20 minutes at room temperature before measuring radioactivity using standard instrumentation.
The reaction mixture was prepared by adding 90 ml of H2O to 10 ml of 10× assay buffer (500 mM Tris pH 7.5, 83 mM MgCl2, 17 mM EGTA), and 40 microlitres 1 μCi/μL [3H]-cAMP. SPA beads solution was prepared by adding 500 mg to […] H2O for a final concentration of 20 mg/ml beads and 18 mM zinc sulphate.

PDE4, sequence (Q07343 whole entry): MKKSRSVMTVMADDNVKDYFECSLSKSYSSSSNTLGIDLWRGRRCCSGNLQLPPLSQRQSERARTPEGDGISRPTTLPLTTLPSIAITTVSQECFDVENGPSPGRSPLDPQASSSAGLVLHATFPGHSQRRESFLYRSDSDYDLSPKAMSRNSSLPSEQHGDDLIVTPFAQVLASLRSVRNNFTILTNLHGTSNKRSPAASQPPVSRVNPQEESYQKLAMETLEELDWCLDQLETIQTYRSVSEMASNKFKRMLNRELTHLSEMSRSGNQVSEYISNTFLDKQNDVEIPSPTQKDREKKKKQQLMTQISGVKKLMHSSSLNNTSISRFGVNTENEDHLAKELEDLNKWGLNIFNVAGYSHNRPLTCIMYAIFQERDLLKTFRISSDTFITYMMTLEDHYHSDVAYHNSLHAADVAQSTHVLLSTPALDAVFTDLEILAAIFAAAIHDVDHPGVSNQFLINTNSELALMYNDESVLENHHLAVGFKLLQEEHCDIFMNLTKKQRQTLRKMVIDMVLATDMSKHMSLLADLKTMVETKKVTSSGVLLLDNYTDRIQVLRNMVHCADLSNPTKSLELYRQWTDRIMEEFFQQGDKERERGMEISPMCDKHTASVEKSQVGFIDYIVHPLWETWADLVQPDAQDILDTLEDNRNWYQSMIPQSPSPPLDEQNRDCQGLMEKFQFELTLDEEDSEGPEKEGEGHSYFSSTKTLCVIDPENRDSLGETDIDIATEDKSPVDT

| Compound | IC50 [nM] |
| --- | --- |
| CCn1nc(C(=O)OCc2cccc(Cl)c2)cc(Nc2cncc3ccccc23)c1=O [Example 13, 3-Chlorobenzyl 1-ethyl-5-(isoquinolin-4-ylamino)-6-oxo-1,6-dihydropyridazine-3-carboxylate] | 2.9 |
| CCn1nc(C(=O)OC(C)c2ccccc2)cc(Nc2cncc3ccccc23)c1=O (stereo not drawn) [Example 14, 1-Phenylethyl 1-ethyl-5-(isoquinolin-4-ylamino)-6-oxo-1,6-dihydropyridazine-3-carboxylate] | 2.4 |
| CCn1nc(C(=O)OC(C)Cc2ccccc2)c(C(C)=O)c(Nc2cncc3ccccc23)c1=O (stereo not drawn) [Example 38, 1-Methyl-2-phenylethyl 4-acetyl-1-ethyl-5-(isoquinolin-4-ylamino)-6-oxo-1,6-dihydropyridazine-3-carboxylate] | 13 |
| CCn1nc(C(=O)OC(C)c2ccccc2)c(C(C)=O)c(Nc2cncc3ccccc23)c1=O (stereo not drawn) [Example 39, 1-Phenylethyl 4-acetyl-1-ethyl-5-(isoquinolin-4-ylamino)-6-oxo-1,6-dihydropyridazine-3-carboxylate] | 1.5 |
| CCn1nc(C(=O)OC(C)c2ccccc2)c(C(C)=O)c(Nc2cnccc2C)c1=O (stereo not drawn) [Example 41, 1-Phenylethyl 4-acetyl-1-ethyl-5-[(4-methylpyridin-3-yl)amino]-6-oxo-1,6-dihydropyridazine-3-carboxylate] | 69 |
| CCn1nc(C(=O)OCCOc2ccccc2)cc(Nc2cncc3ccccc23)c1=O [Example 49, 2-Phenoxyethyl 1-ethyl-5-(isoquinolin-4-ylamino)-6-oxo-1,6-dihydropyridazine-3-carboxylate] | 0.73 |
| CCn1nc(C(=O)OCOC(=O)C(C)(C)CC)cc(Nc2cncc3ccccc23)c1=O [Example 66, 2,2-Dimethylbutyryloxymethyl 1-ethyl-5-(isoquinolin-4-ylamino)-6-oxo-1,6-dihydropyridazine-3-carboxylate] | 0.36 |
| CCCCCCCCOC(=O)c1nn(CC)c(=O)c(Nc2cncc3ccccc23)c1C(C)=O [Example 71, Octyl 4-acetyl-1-ethyl-5-(isoquinolin-4-ylamino)-6-oxo-1,6-dihydropyridazine-3-carboxylate] | 5 |

Further lines, results first:

| IC50 [nM] | Compound |
| --- | --- |
| 52 | CCn1nc(C(=O)OCc2ccccc2)cc(Nc2cnccc2C)c1=O [Example 1, Benzyl 1-ethyl-5-(4-methylpyridin-3-ylamino)-6-oxo-1,6-dihydropyridazine-3-carboxylate] |
| 19 | CCn1nc(C(=O)OCc2ccsc2)cc(Nc2cnccc2C)c1=O [Example 10, Thiophen-3-ylmethyl 1-ethyl-5-(4-methylpyridin-3-ylamino)-6-oxo-1,6-dihydropyridazine-3-carboxylate] |
| 1.6 | CCn1nc(C(=O)OCc2cccc(OC)c2)cc(Nc2cncc3ccccc23)c1=O [Example 11, 3-Methoxybenzyl 1-ethyl-5-(isoquinolin-4-ylamino)-6-oxo-1,6-dihydropyridazine-3-carboxylate] |
| 14 | CCOC(=O)c1nn(CC)c(=O)c(Nc2cncc3ccccc23)c1C(C)=O [Example 23, Ethyl 4-acetyl-1-ethyl-5-(isoquinolin-4-ylamino)-6-oxo-1,6-dihydropyridazine-3-carboxylate] |
| 5.1 | CCn1nc(C(=O)OCc2ccccc2)c(C(C)=O)c(Nc2cccnc2)c1=O [Example 26, Benzyl 4-acetyl-1-ethyl-6-oxo-5-(pyridin-3-ylamino)-1,6-dihydropyridazine-3-carboxylate] |
| 16 | CCn1nc(C(=O)OC(C)C)c(C(C)=O)c(Nc2cncc3ccccc23)c1=O [Example 27, Isopropyl 4-acetyl-1-ethyl-5-(isoquinolin-4-ylamino)-6-oxo-1,6-dihydropyridazine-3-carboxylate] |
| 1.9 | CCn1nc(C(=O)OCc2ccccc2)c(C(C)=O)c(Nc2cncc3ccccc23)c1=O [Example 33, Benzyl 4-acetyl-1-ethyl-5-(isoquinolin-4-ylamino)-6-oxo-1,6-dihydropyridazine-3-carboxylate] |
| 44 | CCn1nc(C(=O)OC2CCC2)c(C(C)=O)c(Nc2cncc3ccccc23)c1=O [Example 36, Cyclobutyl 4-acetyl-1-ethyl-5-(isoquinolin-4-ylamino)-6-oxo-1,6-dihydropyridazine-3-carboxylate] |
| 0.48 | CCn1nc(C(=O)OCc2ccc(Br)cc2)cc(Nc2cncc3ccccc23)c1=O [Example 51, 4-Bromobenzyl 1-ethyl-5-(isoquinolin-4-ylamino)-6-oxo-1,6-dihydropyridazine-3-carboxylate] |
| 0.49 | CCn1nc(C(=O)OCc2cccc(Cl)c2)c(C(C)=O)c(Nc2cncc3ccccc23)c1=O [Example 69, 3-Chlorobenzyl 4-acetyl-1-ethyl-5-(isoquinolin-4-ylamino)-6-oxo-1,6-dihydropyridazine-3-carboxylate] |

— patent US7960383B2, “Pyridazin-3(2H)-one derivatives and their use as PDE4 inhibitors” (Laboratorios Almirall SA, priority 2004, dated 2011)
